Measurements: patent US20220177471A1, “N-1 BRANCHED ALKYL SUBSTITUTED IMIDAZO[4,5-C]QUINOLINE COMPOUNDS, COMPOSITIONS, AND METHODS” (3M INNOVATIVE PROPERTIES COMPANY, priority 2019, published 2022)

Target: T1, human TLR7 (Homo sapiens, UniProt Q9NYK1)
T1 construct: host or cells: HEK293 (HEK-BLUE-hTLR7)
T1 sequence (Q9NYK1 27-1049): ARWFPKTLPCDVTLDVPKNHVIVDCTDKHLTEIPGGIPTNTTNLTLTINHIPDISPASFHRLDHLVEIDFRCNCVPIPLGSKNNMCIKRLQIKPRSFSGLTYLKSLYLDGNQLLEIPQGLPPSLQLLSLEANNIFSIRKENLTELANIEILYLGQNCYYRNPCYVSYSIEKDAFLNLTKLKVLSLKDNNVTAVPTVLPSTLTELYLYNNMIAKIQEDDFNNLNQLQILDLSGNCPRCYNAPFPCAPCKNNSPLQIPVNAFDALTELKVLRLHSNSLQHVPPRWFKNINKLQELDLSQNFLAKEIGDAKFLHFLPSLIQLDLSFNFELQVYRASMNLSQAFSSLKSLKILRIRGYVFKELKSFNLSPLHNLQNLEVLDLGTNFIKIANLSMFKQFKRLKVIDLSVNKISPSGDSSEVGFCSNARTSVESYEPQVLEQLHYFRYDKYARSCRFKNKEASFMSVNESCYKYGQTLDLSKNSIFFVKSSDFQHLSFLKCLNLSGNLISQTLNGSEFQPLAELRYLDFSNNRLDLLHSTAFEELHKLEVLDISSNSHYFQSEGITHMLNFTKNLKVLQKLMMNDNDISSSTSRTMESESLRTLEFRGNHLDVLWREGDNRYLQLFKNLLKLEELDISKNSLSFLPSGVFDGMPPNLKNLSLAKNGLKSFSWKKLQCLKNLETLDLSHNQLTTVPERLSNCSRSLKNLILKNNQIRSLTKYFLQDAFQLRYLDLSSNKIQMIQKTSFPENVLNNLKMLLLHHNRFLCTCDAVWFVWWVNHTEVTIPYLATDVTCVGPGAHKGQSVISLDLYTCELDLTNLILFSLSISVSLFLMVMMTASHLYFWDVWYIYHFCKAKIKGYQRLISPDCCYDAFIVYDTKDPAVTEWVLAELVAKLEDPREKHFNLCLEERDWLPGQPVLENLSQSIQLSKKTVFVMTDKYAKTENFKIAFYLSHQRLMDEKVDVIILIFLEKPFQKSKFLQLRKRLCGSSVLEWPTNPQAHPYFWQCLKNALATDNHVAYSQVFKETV
Assay: TLR activation, HEK-BLUE-hTLR7 SEAP reporter cells
Format: cell-based
Details: 16-20 hours, lowest concentration giving SEAP response at least 2x vehicle control, tested 0.01-30 micromolar
Method: HEK-BLUE-hTLR7 or hTLR8 reporter cells were obtained from InvivoGen, San Diego, Calif. According to the manufacturer's description, these reporter cells were prepared by co-transfection of HEK293 cells with an inducible secreted embryonic alkaline phosphatase (SEAP) reporter gene and either the human TLR7 or TLR8 gene. The SEAP reporter gene was placed under the control of an IFN-β minimal promoter fused to five NF-κB and AP-1-binding sites. In the presence of a TLR ligand, activation of NF-κB and AP-1 occurs, resulting in a corresponding increase in SEAP levels.
In the assay, the HEK cells were grown and maintained using standard cell culture techniques in a growth medium that contained Dulbecco's Modified Eagle Medium (ThermoFisher Scientific Incorporated, Waltham, Mass.) supplemented with 1% penicillin/streptomycin and 10% heat-inactivated Gibco fetal bovine serum (ThermoFisher Scientific). Each compound was solubilized in DMSO to create a 3 mM stock solution. The stock solution was then further diluted with the growth medium to prepare serial dilutions. Each test compound was tested at a concentration of 30, 10, 3.3, 1.1, 0.37, 0.12, 0.04, and 0.01 micromolar using a 96-well format with 5×10^4 cells and 200 microliters of growth medium per well.
For each compound, hTLR7, hTLR8, and their respective null control HEK cells were screened. DMSO serially diluted into the growth medium served as the vehicle control. Cell culture supernatants containing the SEAP reporter were collected after an incubation period of 16-20 hours in a cell culture incubator (37° C. and 5% CO2), and either analyzed immediately or stored at −80° C. SEAP levels were measured using the colorimetric enzyme assay (QUANTI-BLUE (InvivoGen) according to manufacturer's instructions.
Specifically, the minimum effective concentration of each compound (micromolar) was determined as the lowest concentration of the compound that produced a SEAP expression response at least 2× greater than that observed with the vehicle control wells.

Structure (SMILES)	MEC to Produce TLR Activation: TLR 7 [µM]
CCC[C@@H](n1cnc2c(N)nc3ccccc3c21)C(C)(C)O [Example 13, (3R)-3-(4-aminoimidazo[4,5-c]quinolin-1-yl)-2-methyl-hexan-2-ol]	0.04
C[C@H](n1cnc2c(N)nc3ccccc3c21)C(C)(C)F [Example 21, 1-[(1S)-2-fluoro-1,2-dimethyl-propyl]imidazo[4,5-c]quinolin-4-amine]	>30
C[C@H](n1cnc2c(N)nc3ccccc3c21)C(C)(C)O [Example 10, (3S)-3-(4-aminoimidazo[4,5-c]quinolin-1-yl)-2-methyl-butan-2-ol]	>30
CC(C)(O)Cn1cnc2c(N)nc3ccccc3c21 [Comparative Example 2, 1-(4-aminoimidazo[4,5-c]quinolin-1-yl)-2-methyl-propan-2-ol, reference compound]	10
CCC[C@H](n1cnc2c(N)nc3ccccc3c21)C(C)(C)O [Example 14, (3S)-3-(4-aminoimidazo[4,5-c]quinolin-1-yl)-2-methyl-hexan-2-ol]	>30
CC[C@H](n1cnc2c(N)nc3ccccc3c21)C(C)(C)O [Example 12, (3S)-3-(4-aminoimidazo[4,5-c]quinolin-1-yl)-2-methyl-pentan-2-ol]	>30
CC(C)Cn1cnc2c(N)nc3ccccc3c21 [Comparative Example 1, 1-isobutylimidazo[4,5-c]quinolin-4-amine, reference compound]	10
CC[C@@H](n1cnc2c(N)nc3ccccc3c21)C(C)(C)O [Example 11, (3R)-3-(4-aminoimidazo[4,5-c]quinolin-1-yl)-2-methyl-pentan-2-ol]	1.1
CC(C)C[C@@H](n1cnc2c(N)nc3ccccc3c21)C(C)(C)O [Example 17, (3R)-3-(4-aminoimidazo[4,5-c]quinolin-1-yl)-2,5-dimethyl-hexan-2-ol]	1.1
CC(C)C[C@H](n1cnc2c(N)nc3ccccc3c21)C(C)(C)O [Example 18, (3S)-3-(4-aminoimidazo[4,5-c]quinolin-1-yl)-2,5-dimethyl-hexan-2-ol]	>30
CCC(O)(CC)[C@@H](C)n1cnc2c(N)nc3ccccc3c21 [Example 19, (2R)-2-(4-aminoimidazo[4,5-c]quinolin-1-yl)-3-ethyl-pentan-3-ol]	3.3
CCCC[C@H](C(C)C)n1cnc2c(N)nc3ccccc3c21 [Example 7, 1-[(1R)-1-isopropylpentyl]imidazo[4,5-c]quinolin-4-amine]	0.04
CCCC[C@H](n1cnc2c(N)nc3ccccc3c21)C(C)(C)O [Example 16, (3S)-3-(4-aminoimidazo[4,5-c]quinolin-1-yl)-2-methyl-heptan-2-ol]	>30
CCCC[C@@H](n1cnc2c(N)nc3ccccc3c21)C(C)(C)O [Example 15, (3R)-3-(4-aminoimidazo[4,5-c]quinolin-1-yl)-2-methyl-heptan-2-ol]	0.01
CCCC[C@@H](n1cnc2c(N)nc3ccccc3c21)C(C)(C)C [Example 8, 1-[(1R)-1-tert-butylpentyl]imidazo[4,5-c]quinolin-4-amine]	≤0.01

More lines, now with the values ahead:

MEC to Produce TLR Activation: TLR 7 [µM]	Structure (SMILES)
>30	CC(C)[C@H](C)n1cnc2c(N)nc3ccccc3c21 [Example 2, 1-[(1S)-1,2-dimethylpropyl]imidazo[4,5-c]quinolin-4-amine]
3.3	C[C@@H](n1cnc2c(N)nc3ccccc3c21)C(C)(C)F [Example 20, 1-[(1R)-2-fluoro-1,2-dimethyl-propyl]imidazo[4,5-c]quinolin-4-amine]
1.1	CC(C)[C@@H](C)n1cnc2c(N)nc3ccccc3c21 [Example 1, 1-[(1R)-1,2-dimethylpropyl]imidazo[4,5-c]quinolin-4-amine]
1.11	C[C@@H](n1cnc2c(N)nc3ccccc3c21)C(C)(C)C [Example 3, 1-[(1R)-1,2,2-trimethylpropyl]imidazo[4,5-c]quinolin-4-amine]
1.11	C[C@H](C1CCCCC1)n1cnc2c(N)nc3ccccc3c21 [Example 5, 1-[(1R)-1-cyclohexylethyl]imidazo[4,5-c]quinolin-4-amine]
3.3	C[C@@H](n1cnc2c(N)nc3ccccc3c21)C(C)(C)O [Example 9, (3R)-3-(4-aminoimidazo[4,5-c]quinolin-1-yl)-2-methyl-butan-2-ol]
>30	C[C@H](n1cnc2c(N)nc3ccccc3c21)C(C)(C)C [Example 4, 1-[(1S)-1,2,2-trimethylpropyl]imidazo[4,5-c]quinolin-4-amine]
>30	C[C@@H](C1CCCCC1)n1cnc2c(N)nc3ccccc3c21 [Example 6, 1-[(1S)-1-cyclohexylethyl]imidazo[4,5-c]quinolin-4-amine]
